Experiments:
[1] = tested on: field EPSP in the rat dentate gyrus; conditions: in vivo, ip; cited from earlier work
[2] = mouse, in vivo
[3] = mouse, in vivo; for MRT0-t: Kunming, iv, 1 mg/kg

Structure (SMILES) | increase in the amplitude of the field EPSP [1] [%] | (AUC0-t)prodrug group/(AUC0-t)prototype drug group [2] | (AUC0-t)prodrug/(AUC0-t)prototype drug [3] | MRT0-t [3] [h]
O=C(c1ccc2nccnc2c1)N1CCCCC1 [CX516, 6-(piperidin-1-yl-carbonyl)quinoxaline] | 9 | – | – | –
CCSS/C(CCOC(=O)CCC(=O)OC1CCC(N(C)C(=O)c2ccc3nonc3c2)CC1)=C(/C)N(C)C=O (stereo not drawn) [Compound 1, Succinic acid anti-4-[(benzo[c][1,2,5]oxadiazole-5-carbonyl)-methyl-amino]-cyclohexyl ester 3-ethyldisulfanyl-4-(formyl-methyl-amino)-pent-3-enyl ester] | – | 0.48 | 1.55 | –
CCCSS/C(CCOC(=O)CCC(=O)OC1CCC(N(C)C(=O)c2ccc3nonc3c2)CC1)=C(/C)N(C)C=O (stereo not drawn) [Compound 2, Succinic acid anti-4-[(benzo[c][1,2,5]oxadiazole-5-carbonyl)-methyl-amino]-cyclohexyl ester 3-propyldisulfanyl-4-(formyl-methyl-amino)-pent-3-enyl ester] | – | 0.49 | 1.72 | –
C/C(=C(\CCOC(=O)CCC(=O)OC1CCC(N(C)C(=O)c2ccc3nonc3c2)CC1)SSC(C)C)N(C)C=O (stereo not drawn) [Compound 3, Succinic acid anti-4-[(benzo[c][1,2,5]oxadiazole-5-carbonyl)-methyl-amino]-cyclohexyl ester 3-isopropyldisulfanyl-4-(formyl-methyl-amino)-pent-3-enyl ester] | – | 0.62 | 1.77 | –
CCCCSS/C(CCOC(=O)CCC(=O)OC1CCC(N(C)C(=O)c2ccc3nonc3c2)CC1)=C(/C)N(C)C=O (stereo not drawn) [Compound 4, Succinic acid anti-4-[(benzo[c][1,2,5]oxadiazole-5-carbonyl)-methyl-amino]-cyclohexyl ester 3-butyldisulfanyl-4-(formyl-methyl-amino)-pent-3-enyl ester] | – | 0.68 | 1.56 | –
C/C(=C(\CCOC(=O)CCC(=O)OC1CCC(N(C)C(=O)c2ccc3nonc3c2)CC1)SSCC(C)C)N(C)C=O (stereo not drawn) [Compound 5, Succinic acid anti-4-[(benzo[c][1,2,5]oxadiazole-5-carbonyl)-methyl-amino]-cyclohexyl ester 3-isobutyldisulfanyl-4-(formyl-methyl-amino)-pent-3-enyl ester] | – | 0.67 | 1.70 | –
CCCCCSS/C(CCOC(=O)CCC(=O)OC1CCC(N(C)C(=O)c2ccc3nonc3c2)CC1)=C(/C)N(C)C=O (stereo not drawn) [Compound 6, Succinic acid anti-4-[(benzo[c][1,2,5]oxadiazole-5-carbonyl)-methyl-amino]-cyclohexyl ester 3-pentyldisulfanyl-4-(formyl-methyl-amino)-pent-3-enyl ester] | – | 0.62 | 1.88 | –
C/C(=C(\CCOC(=O)CCC(=O)OC1CCC(N(C)C(=O)c2ccc3nonc3c2)CC1)SSCCC(C)C)N(C)C=O (stereo not drawn) [Compound 7, Succinic acid anti-4-[(benzo[c][1,2,5]oxadiazole-5-carbonyl)-methyl-amino]-cyclohexyl ester 3-isopentyldisulfanyl-4-(formyl-methyl-amino)-pent-3-enyl ester] | – | 0.53 | 1.49 | –
C/C(=C(\CCOC(=O)CCC(=O)OC1CCC(N(C)C(=O)c2ccc3nonc3c2)CC1)SSCc1ccccc1)N(C)C=O (stereo not drawn) [Compound 8, Succinic acid anti-4-[(benzo[c][1,2,5]oxadiazole-5-carbonyl)-methyl-amino]-cyclohexyl ester 3-benzyldisulfanyl-4-(formyl-methyl-amino)-pent-3-enyl ester] | – | 0.62 | 1.73 | –
CCSS/C(CCOC(=O)CCCC(=O)OC1CCC(N(C)C(=O)c2ccc3nonc3c2)CC1)=C(/C)N(C)C=O (stereo not drawn) [Compound 9, Pentanedioic acid anti-4-[(benzo[c][1,2,5]oxadiazole-5-carbonyl)-methyl-amino]-cyclohexyl ester 3-ethyldisulfanyl-4-(formyl-methyl-amino)-pent-3-enyl ester] | – | 0.51 | 1.74 | –
CCCSS/C(CCOC(=O)CCCC(=O)OC1CCC(N(C)C(=O)c2ccc3nonc3c2)CC1)=C(/C)N(C)C=O (stereo not drawn) [Compound 10, Pentanedioic acid anti-4-[(benzo[c][1,2,5]oxadiazole-5-carbonyl)-methyl-amino]-cyclohexyl ester 3-propyldisulfanyl-4-(formyl-methyl-amino)-pent-3-enyl ester] | – | 0.47 | 1.86 | –
C/C(=C(\CCOC(=O)CCCC(=O)OC1CCC(N(C)C(=O)c2ccc3nonc3c2)CC1)SSC(C)C)N(C)C=O (stereo not drawn) [Compound 11, Pentanedioic acid anti-4-[(benzo[c][1,2,5]oxadiazole-5-carbonyl)-methyl-amino]-cyclohexyl ester 3-isopropyldisulfanyl-4-(formyl-methyl-amino)-pent-3-enyl ester] | – | 0.72 | 1.92 | –
CCCCSS/C(CCOC(=O)CCCC(=O)OC1CCC(N(C)C(=O)c2ccc3nonc3c2)CC1)=C(/C)N(C)C=O (stereo not drawn) [Compound 12, Pentanedioic acid anti-4-[(benzo[c][1,2,5]oxadiazole-5-carbonyl)-methyl-amino]-cyclohexyl ester 3-butyldisulfanyl-4-(formyl-methyl-amino)-pent-3-enyl ester] | – | 0.46 | 1.92 | –
C/C(=C(\CCOC(=O)CCCC(=O)OC1CCC(N(C)C(=O)c2ccc3nonc3c2)CC1)SSCC(C)C)N(C)C=O (stereo not drawn) [Compound 13, Pentanedioic acid anti-4-[(benzo[c][1,2,5]oxadiazole-5-carbonyl)-methyl-amino]-cyclohexyl ester 3-isobutyldisulfanyl-4-(formyl-methyl-amino)-pent-3-enyl ester] | – | 0.60 | 1.96 | –
CCCCCSS/C(CCOC(=O)CCCC(=O)OC1CCC(N(C)C(=O)c2ccc3nonc3c2)CC1)=C(/C)N(C)C=O (stereo not drawn) [Compound 14, Pentanedioic acid anti-4-[(benzo[c][1,2,5]oxadiazole-5-carbonyl)-methyl-amino]-cyclohexyl ester 3-pentyldisulfanyl-4-(formyl-methyl-amino)-pent-3-enyl ester] | – | 0.65 | 1.98 | –
C/C(=C(\CCOC(=O)CCCC(=O)OC1CCC(N(C)C(=O)c2ccc3nonc3c2)CC1)SSCc1ccccc1)N(C)C=O (stereo not drawn) [Compound 16, Pentanedioic acid anti-4-[(benzo[c][1,2,5]oxadiazole-5-carbonyl)-methyl-amino]-cyclohexyl ester 3-benzyldisulfanyl-4-(formyl-methyl-amino)-pent-3-enyl ester] | – | 0.41 | 1.86 | –
CCSS/C(CCOC(=O)CCCC(=O)OC1CCC(N(C)C(=O)c2ccc3nonc3c2)CC1)=C(/C)N(C=O)CC (stereo not drawn) [Compound 17, Pentanedioic acid anti-4-[(benzo[c][1,2,5]oxadiazole-5-carbonyl)-methyl-amino]-cyclohexyl ester 3-ethyldisulfanyl-4-(formyl-ethyl-amino)-pent-3-enyl ester] | – | 0.61 | 1.55 | –
CCCN(C=O)/C(C)=C(/CCOC(=O)CCCC(=O)OC1CCC(N(C)C(=O)c2ccc3nonc3c2)CC1)SSCC (stereo not drawn) [Compound 18, Pentanedioic acid anti-4-[(benzo[c][1,2,5]oxadiazole-5-carbonyl)-methyl-amino]-cyclohexyl ester 3-ethyldisulfanyl-4-(formyl-propyl-amino)-pent-3-enyl ester] | – | 0.73 | 1.70 | –
C/C(=C(\CCOC(=O)CCCC(=O)OC1CCC(N(C)C(=O)c2ccc3nonc3c2)CC1)SSCCC(C)C)N(C=O)CC(=O)OCC1OC(O)C(O)C(O)C1O [Compound 19, Pentanedioic acid anti-4-[(benzo[c][1,2,5]oxadiazole-5-carbonyl)-methyl-amino]-cyclohexyl ester 3-isopentyldisulfanyl-4-[formyl-(D-glucos-6-yl-carbonylmethyl)-amino]-pent-3-enyl ester] | – | 0.73 | 1.41 | –
CCSS/C(CCOC(=O)CCCC(=O)OC1CCC(N(C)C(=O)c2ccc3nonc3c2)CC1)=C(/C)N(C=O)CC(=O)OCC1OC(O)C(O)C(O)C1O [Compound 20, Pentanedioic acid anti-4-[(benzo[c][1,2,5]oxadiazole-5-carbonyl)-methyl-amino]-cyclohexyl ester 3-ethyldisulfanyl-4-[formyl-(D-glucos-6-yl-carbonylmethyl)-amino]-pent-3-enyl ester] | – | 0.82 | 1.65 | –
CCCCCCSS/C(CCOC(=O)CCCC(=O)OC1CCC(N(C)C(=O)c2ccc3nonc3c2)CC1)=C(/C)N(C=O)CC(=O)OCC1OC(O)C(O)C(O)C1O [Compound 21, Pentanedioic acid anti-4-[(benzo[c][1,2,5]oxadiazole-5-carbonyl)-methyl-amino]-cyclohexyl ester 3-hexyldisulfanyl-4-[formyl-(D-glucos-6-yl-carbonylmethyl)-amino]-pent-3-enyl ester] | – | – | 1.68 | 1.91
CCSS/C(CCOC(=O)CCCC(=O)OC1CCC(N(C)C(=O)c2ccc3nonc3c2)CC1)=C(/C)N(C=O)CC(=O)OCC(O)C1OC(=O)C(O)=C1O (stereo not drawn) [Compound 22, Pentanedioic acid anti-4-[(benzo[c][1,2,5]oxadiazole-5-carbonyl)-methyl-amino]-cyclohexyl ester 3-ethyldisulfanyl-4-{[2-(3,4-dihydroxy-5-oxo-2,5-dihydro-furan-2-yl)-2-hydroxy-ethoxycarbonylmethyl]-formyl-amino}-pent-3-enyl ester] | – | – | 1.82 | 2.00

From patent US10759822B2 (priority 2016, dated 2020)
